Assay results from ChEMBL document CHEMBL4392857, “Isolation, Chiral-Phase Resolution, and Determination of the Absolute Configurations of a Complete Series of Stereoisomers of a Rearranged Acetophenone with Three Stereocenters” (2019).

Experiments:
[1] = tested on: HUVEC; assay: Cytoprotective effect against high glucose-induced oxidative stress in HUVEC assessed as cell viability at 5 uM incubated by MTT assay (reference value: 72.1 to 77.9%); assay type: functional; settings: Homo sapiens, read-out: Activity
[2] = tested on: HUVEC; assay: Cytoprotective effect against high glucose-induced oxidative stress in HUVEC assessed as cell viability at 1 uM incubated by MTT assay (reference value: 72.1 to 77.9%); assay type: functional; settings: Homo sapiens, read-out: Activity

SMILES | viability at 5 µM [1] [%] | viability at 1 µM [2] [%]
COC(=O)[C@@]1(O)C(=O)[C@@]2(CC=C(C)C)C[C@@H](O)C(C)(C)OC2=C1C(C)=O | 101 | 101
COC(=O)[C@@]1(O)C(=O)[C@]2(CC=C(C)C)C[C@@H](O)C(C)(C)OC2=C1C(C)=O | 62.7 | 75.6
COC(=O)[C@]1(O)C(=O)[C@@]2(CC=C(C)C)C[C@H](O)C(C)(C)OC2=C1C(C)=O | 65.1 | 71.7
COC(=O)[C@@]1(O)C(=O)[C@]2(CC=C(C)C)C[C@H](O)C(C)(C)OC2=C1C(C)=O | 104 | 103
Oc1ccc(/C=C/c2cc(O)cc(O)c2)cc1 [RESVERATROL] | 103 | 86.4
COC(=O)[C@]1(O)C(=O)[C@]2(CC=C(C)C)C[C@@H](O)C(C)(C)OC2=C1C(C)=O | 104 | 103
COC(=O)[C@]1(O)C(=O)[C@@]2(CC=C(C)C)C[C@@H](O)C(C)(C)OC2=C1C(C)=O | 82 | 79.9
COC(=O)[C@]1(O)C(=O)[C@]2(CC=C(C)C)C[C@H](O)C(C)(C)OC2=C1C(C)=O | 93 | 94.2
COC(=O)[C@@]1(O)C(=O)[C@@]2(CC=C(C)C)C[C@H](O)C(C)(C)OC2=C1C(C)=O | 82 | 79.9
